From US20230242496A1, “SOX11 INHIBITORS FOR TREATING MANTLE CELL LYMPHOMA” (Icahn School of Medicine At Mount Sinai, priority 2020, published 2023) come the findings set out here.

One assay has as its target T1, (His)6-SOX11-DBD protein (Homo sapiens, UniProt P35716).
T1 construct: Recombinant (His)6-SOX11-DBD protein was immobilized
T1 sequence (P35716 49-117 limits assumed): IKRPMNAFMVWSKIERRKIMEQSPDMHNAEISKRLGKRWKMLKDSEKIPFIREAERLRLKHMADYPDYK
The assay is described as follows: Surface Plasmon Resonance (SPR) assay. The class given is binding. The note with it: immobilized recombinant (His)6-SOX11-DBD, 25° C., compounds 5-40 μM, mean of three experiments.

A further assay relates to Jeko-1 (SOX11+). The assay is described as follows: Cell viability assay (CellTiter-Blue resazurin reduction). The class given is cell-based. The note with it: Homo sapiens, JeKo-1 cells; for IC50: 0-40 μM; for viability at 20 µM: 20 μM compound, normalized to 0.2% DMSO. The gist of the method:
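Cells were exposed to compound for 72 h, then resazurin reduction (CellTiter-Blue, 2 h) was read by fluorescence and converted to viable cell number via a standard curve. Viability was normalised to 0.2% DMSO-treated cells. IC50 came from a sigmoidal dose-response fit, three separate experiments.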
(Alamar Blue is a resazurin reagent that responds to reducing activity.)

A value given as a limit tells only on which side of the number the result lay.

For orientation: Kd means the free concentration of one partner at which half of the binding sites on the other are occupied at equilibrium, for simple one-to-one binding. As a reminder, the IC50 is the concentration at which inhibition is half-maximal. The viability is a read-out of living cells in per cent, often relative to untreated cells. `Cc1cccc(NS(=O)(=O)c2ccc(NC(=O)c3ccc4c(c3)NC(=O)C(C)S4)cc2)c1` (stereo not drawn): at (His)6-SOX11-DBD protein, the dissociation constant (Kd) stood at 1.16 µM. Also, in the assay with Jeko-1 (SOX11+) (JeKo-1, 72 h), 11 µM corresponded to half-maximal inhibition (IC50) and the viability at 20 µM came out at 0.58%.
On to `CC1Sc2ccc(C(=O)Nc3ccc(S(=O)(=O)Nc4ccncn4)cc3)cc2NC1=O` (stereo not drawn), for which, on (His)6-SOX11-DBD protein, the Kd was determined as 5.51 µM. Further, in the assay on Jeko-1 (SOX11+) (JeKo-1, 72 h), the IC50 was more than 20 µM and the viability at 20 µM was determined as 106%.
Take `Nc1ccccc1CC(=O)Nc1cccc(C(=O)Nc2ccc(S(=O)(=O)Nc3ccccc3)cc2)c1`: the Kd on (His)6-SOX11-DBD protein is 0.805 µM. In addition, in the assay with Jeko-1 (SOX11+) (JeKo-1, 72 h), the IC50 amounted to 11 µM and the viability at 20 µM came to 9.92%.
In the same order, the values of `CC1Sc2ccc(C(=O)Nc3cccc(S(=O)(=O)NC4CCNCC4)c3)cc2NC1=O` (stereo not drawn) are 54.6 µM, more than 20 µM and 96.6%.
For the compound `CC1Sc2ccc(C(=O)Nc3cccc(S(=O)(=O)NC4CCN(C(=O)OC(C)(C)C)CC4)c3)cc2NC1=O` (stereo not drawn), the dissociation constant (Kd) on (His)6-SOX11-DBD protein came to 142 µM. In the assay on Jeko-1 (SOX11+) (JeKo-1, 72 h), the half-inhibitory concentration (IC50) was 15 µM and the viability at 20 µM was found to be 13%.
Taken in the same sequence, the figures for `CC1Sc2ccc(C(=O)Nc3cccc(S(=O)(=O)Nc4ccc(C(F)(F)F)cc4)c3)cc2NC1=O` (stereo not drawn) were 2.12 µM, less than 20 µM and 22.2%.
As for `CCN(CC)S(=O)(=O)c1cccc(NC(=O)c2ccc3c(c2)NC(=O)C(C)S3)c1` (stereo not drawn), the Kd at (His)6-SOX11-DBD protein amounted to 31.2 µM. In the assay on Jeko-1 (SOX11+) (JeKo-1, 72 h), half-maximal inhibition (IC50) required 8 µM and the viability at 20 µM is 0.44%.
In the same order, the values of `CC1Sc2ccc(C(=O)Nc3cccc(S(=O)(=O)N(C)C(C)C)c3)cc2NC1=O` (stereo not drawn) are 65.9 µM, 6 µM and 9.64%.
Consider `CC1Sc2ccc(C(=O)Nc3cccc(S(=O)(=O)Nc4ccncc4)c3)cc2NC1=O` (stereo not drawn), for which the equilibrium dissociation constant (Kd) on (His)6-SOX11-DBD protein worked out at 21.2 µM. In the assay on Jeko-1 (SOX11+) (JeKo-1, 72 h), the IC50 is more than 20 µM and the viability at 20 µM worked out at 95.8%.
For `CC1Sc2ccc(C(=O)Nc3ccc(S(=O)(=O)N4CCCC4)c(Cl)c3)cc2NC1=O` (stereo not drawn), the dissociation constant (Kd) on (His)6-SOX11-DBD protein was found to be 13.8 µM. Also, the viability at 20 µM in the assay with Jeko-1 (SOX11+) (JeKo-1, 72 h) is 8.93%.
`CC1Sc2ccc(C(=O)Nc3ccc(S(=O)(=O)N4CCOCC4)cc3)cc2NC1=O` (stereo not drawn): the Kd on (His)6-SOX11-DBD protein is 137 µM. Also, in the assay with Jeko-1 (SOX11+) (JeKo-1, 72 h), the 50% inhibitory concentration (IC50) was 11 µM and the viability at 20 µM turned out to be 18.9%.
In the case of `CC1Sc2ccc(C(=O)Nc3cccc(CNc4cccc(S(=O)(=O)F)c4)c3)cc2NC1=O` (stereo not drawn), the dissociation constant Kd at (His)6-SOX11-DBD protein was found to be 1.9 µM. Further, in the assay with Jeko-1 (SOX11+) (72 hours), the viability at 20 µM worked out at 44.3% and half-maximal inhibition (IC50) was put at 19 µM.
For `O=C1COc2ccc(C(=O)Nc3ccc(S(=O)(=O)Nc4ccccc4)cc3)cc2N1`, at (His)6-SOX11-DBD protein, the Kd came to 17.9 µM. In the assay with Jeko-1 (SOX11+) (JeKo-1, 72 h), the IC50 is more than 20 µM and the viability at 20 µM came out at 61.1%.
Turning to `CN(c1ccccc1)S(=O)(=O)c1ccc(NC(=O)c2ccc3nncn3c2)cc1`, at (His)6-SOX11-DBD protein, the dissociation constant Kd was determined as 4.07 µM. In the assay with Jeko-1 (SOX11+) (JeKo-1, 72 h), the IC50 was more than 20 µM and the viability at 20 µM stood at 126%.
On to `CC1Sc2ccc(C(=O)Nc3cccc(S(=O)(=O)N4CCOCC4)c3)cc2NC1=O` (stereo not drawn), for which, at (His)6-SOX11-DBD protein, the Kd is 85 µM. In the assay on Jeko-1 (SOX11+) (JeKo-1, 72 h), 8 µM corresponded to half-maximal inhibition (IC50) and the viability at 20 µM turned out to be 30.8%.
Take `CC1Sc2ccc(C(=O)Nc3ccc(CNc4ccccc4)cc3)cc2NC1=O` (stereo not drawn): at (His)6-SOX11-DBD protein, the Kd worked out at 0.258 µM. Further, in the assay with Jeko-1 (SOX11+) (JeKo-1, 72 h), the viability at 20 µM came out at 108%.
Consider `CC1Sc2ccc(C(=O)Nc3ccc(S(=O)(=O)Nc4ccccc4)s3)cc2NC1=O` (stereo not drawn), for which, at (His)6-SOX11-DBD protein, the Kd came out at 6.63 µM. For the same compound, in the assay with Jeko-1 (SOX11+) (JeKo-1, 72 h), the IC50 is more than 20 µM and the viability at 20 µM amounted to 57.4%.
As to `O=C(Nc1ccc(S(=O)(=O)Nc2ccccc2)cc1)c1ccc2cncnc2c1`, the Kd on (His)6-SOX11-DBD protein was 226 µM. Besides, in the assay on Jeko-1 (SOX11+) (JeKo-1, 72 h), the half-inhibitory concentration (IC50) is more than 20 µM and the viability at 20 µM is 100%.
`CC1Sc2ccc(C(=O)Nc3ccc(S(N)(=O)=O)cc3)cc2NC1=O` (stereo not drawn): the equilibrium dissociation constant (Kd) at (His)6-SOX11-DBD protein came to 83.3 µM. In the assay with Jeko-1 (SOX11+) (JeKo-1, 72 h), the IC50 is more than 20 µM and the viability at 20 µM was determined as 101%.
With `O=C(Nc1ccc(S(=O)(=O)Nc2ccccc2)cc1)c1ccc2cccnc2c1`, the Kd at (His)6-SOX11-DBD protein was 2.01 µM. In addition, in the assay on Jeko-1 (SOX11+) (JeKo-1, 72 h), the half-maximal inhibitory concentration (IC50) is more than 20 µM and the viability at 20 µM was found to be 94.2%.
Regarding `O=C1Cc2ccc(C(=O)Nc3ccc(S(=O)(=O)Nc4ccccc4)cc3)cc2N1`, the dissociation constant (Kd) at (His)6-SOX11-DBD protein was found to be 20.9 µM. Further, in the assay with Jeko-1 (SOX11+) (JeKo-1, 72 h), the IC50 is more than 20 µM and the viability at 20 µM came to 81.5%.
Take `CC1Sc2ccc(C(=O)Nc3cccc(OCc4ccccc4)c3)cc2NC1=O` (stereo not drawn): the Kd at (His)6-SOX11-DBD protein was 13.7 µM. In the assay on Jeko-1 (SOX11+) (JeKo-1, 72 h), the viability at 20 µM came to 107%.
For `C[C@@H]1Sc2ccc(C(=O)Nc3ccc(S(=O)(=O)Nc4ccccc4)cc3)cc2NC1=O`, the Kd at (His)6-SOX11-DBD protein turned out to be 31.9 µM. For the same compound, in the assay on Jeko-1 (SOX11+) (JeKo-1, 72 h), the half-maximal inhibitory concentration (IC50) worked out at 12.5 µM and the viability at 20 µM amounted to 12.8%.
In the same order, the values of `CC1Sc2ccc(C(=O)Nc3ccc(S(=O)(=O)NC4CCNCC4)cc3)cc2NC1=O` (stereo not drawn) are 100 µM, more than 20 µM and 80.7%.
`Nc1cc(C(=O)Nc2ccc(S(=O)(=O)Nc3ccccc3)cc2)ccc1/C=C\C(=O)O`: the Kd at (His)6-SOX11-DBD protein amounted to 2.22 µM. Moreover, in the assay with Jeko-1 (SOX11+) (JeKo-1, 72 h), the midpoint of inhibition, the IC50, lay at 9 µM and the viability at 20 µM came to 12.4%.
Turning to `Cc1ccccc1NS(=O)(=O)c1cccc(NC(=O)c2ccc3c(c2)NC(=O)C(C)S3)c1` (stereo not drawn), the equilibrium dissociation constant (Kd) on (His)6-SOX11-DBD protein is 7.42 µM. Further, in the assay on Jeko-1 (SOX11+) (JeKo-1, 72 h), the IC50 turned out to be 6 µM and the viability at 20 µM came to 6.11%.
Take `CCN(c1ccccc1)S(=O)(=O)c1cccc(NC(=O)c2ccc3snnc3c2)c1`: the equilibrium dissociation constant (Kd) on (His)6-SOX11-DBD protein worked out at 2.65 µM. For the same compound, in the assay on Jeko-1 (SOX11+) (JeKo-1, 72 h), 8.5 µM corresponded to half-maximal inhibition (IC50) and the viability at 20 µM is 4.86%.
In the same order, the values of `O=C(Nc1ccc(S(=O)(=O)Nc2ccccc2)cc1)c1ccc2oc(=O)[nH]c2c1` are 8.68 µM, 20 µM and 51.8%.
Turning to `Cc1nc2cc(C(=O)Nc3ccc(S(=O)(=O)Nc4ccccc4)cc3)ccc2s1`, the Kd on (His)6-SOX11-DBD protein turned out to be 21.2 µM. In the assay on Jeko-1 (SOX11+) (JeKo-1, 72 h), the half-inhibitory concentration (IC50) is 12 µM and the viability at 20 µM came to 16.6%.
As to `Cc1ccccc1COc1ccc(NC(=O)c2ccc3c(c2)NC(=O)C(C)S3)cc1` (stereo not drawn), the Kd on (His)6-SOX11-DBD protein is 7.91 µM. Moreover, in the assay on Jeko-1 (SOX11+) (JeKo-1, 72 h), the viability at 20 µM is 99.2%.
`O=C(Nc1ccc(CNc2ccccc2)cc1)c1ccc2c(c1)CCCS2`: at (His)6-SOX11-DBD protein, the Kd was 13.5 µM. Besides, the viability at 20 µM in the assay with Jeko-1 (SOX11+) (JeKo-1, 72 h) turned out to be 51.9%.
As to `CC1Sc2ccc(C(=O)Nc3ccccc3S(=O)(=O)Nc3ccccc3)cc2NC1=O` (stereo not drawn), the Kd at (His)6-SOX11-DBD protein was found to be 29.2 µM. Further, in the assay with Jeko-1 (SOX11+) (JeKo-1, 72 h), the half-maximal inhibitory concentration (IC50) was less than 20 µM and the viability at 20 µM came to 14.2%.
Turning to `CC1Sc2ccc(C(=O)Nc3ccc(CN(C)c4ccccc4)cc3)cc2NC1=O` (stereo not drawn), the Kd at (His)6-SOX11-DBD protein came to 3.62 µM. The viability at 20 µM with Jeko-1 (SOX11+) (JeKo-1, 72 h) is 84.9%.
Regarding `CC1Sc2ccc(C(=O)Nc3ccc(S(=O)(=O)Nc4ccc(Cl)cc4)cc3)cc2NC1=O` (stereo not drawn), the dissociation constant Kd at (His)6-SOX11-DBD protein was determined as 0.861 µM. In the assay on Jeko-1 (SOX11+) (JeKo-1, 72 h), the IC50 worked out at 15 µM and the viability at 20 µM was found to be 9.99%.
In the same order, the values of `O=C(Nc1ccc(S(=O)(=O)Nc2ccccc2)cc1)c1ccc2cn[nH]c2c1` are 48.4 µM, 10 µM and 17.2%.
As for `CC1Oc2ccc(C(=O)Nc3ccc(S(=O)(=O)Nc4ccccc4)cc3)cc2NC1=O` (stereo not drawn), the Kd on (His)6-SOX11-DBD protein was determined as 15.3 µM. In the assay on Jeko-1 (SOX11+) (JeKo-1, 72 h), the IC50 amounted to 12 µM and the viability at 20 µM came out at 9.09%.
As to `CC1Sc2ccc(C(=O)Nc3cccc(S(=O)(=O)Nc4ccccc4C(F)(F)F)c3)cc2NC1=O` (stereo not drawn), the Kd at (His)6-SOX11-DBD protein is 91.7 µM. Moreover, in the assay with Jeko-1 (SOX11+) (JeKo-1, 72 h), the half-maximal inhibitory concentration (IC50) was more than 20 µM and the viability at 20 µM was 73.6%.
Regarding `CC1Sc2ccc(C(=O)Nc3cccc(S(=O)(=O)Nc4ccc(N)cc4)c3)cc2NC1=O` (stereo not drawn), the Kd at (His)6-SOX11-DBD protein worked out at 59.7 µM. In addition, in the assay on Jeko-1 (SOX11+) (JeKo-1, 72 h), the half-inhibitory concentration (IC50) is more than 20 µM and the viability at 20 µM is 59.7%.
